Our source for the IC50 values is US20240294551A1 (AMGEN INC., priority 2022, published 2024).

Assay [1] deals with His-tagged KRAS G12D protein (Homo sapiens (Human), UniProt P01116, G12D). The experiment in a line: KRAS G12D TR-FRET Assay. It is filed as binding. The gist of the method: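 Each incubation ran at room temperature: enzyme with compound for 30 minutes, peptide for one hour, and detection reagents (0.4 nM europium anti-6×His, 5 nM streptavidin-d2) for one hour more. Protein and peptide stocks were each diluted to 20 nM before addition.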
Chain of His-tagged KRAS G12D protein (P01116 other isoform, or with tags, fused parts or gaps G12D): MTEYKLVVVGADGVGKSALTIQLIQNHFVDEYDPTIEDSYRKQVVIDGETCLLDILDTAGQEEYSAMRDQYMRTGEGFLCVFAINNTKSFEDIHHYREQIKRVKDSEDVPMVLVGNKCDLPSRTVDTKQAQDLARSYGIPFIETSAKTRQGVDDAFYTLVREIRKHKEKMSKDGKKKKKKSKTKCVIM
In general terms: TR-FRET usually uses a lanthanide donor and a delayed reading to cut background.

Assay [2] deals with GDP-bound KRAS protein (aa 1-169), containing both G12D and C118A amino acid substitutions (Homo sapiens (Human), UniProt P01116, C118A/G12D). The experiment in a line: KRAS G12D Coupled Nucleotide Exchange Assay. It counts as biochemical.
Chain of GDP-bound KRAS protein (aa 1-169), containing both G12D and C118A amino acid substitutions (P01116 other isoform, or with tags, fused parts or gaps G12D/C118A): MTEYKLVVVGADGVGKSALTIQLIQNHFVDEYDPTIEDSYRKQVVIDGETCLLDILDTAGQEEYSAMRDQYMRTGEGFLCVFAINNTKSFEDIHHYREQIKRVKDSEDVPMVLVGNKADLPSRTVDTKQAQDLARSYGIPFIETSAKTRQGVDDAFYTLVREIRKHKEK
The test system of assay [3] is Phosphorylation of ERK1/2 in AsPC-1 cells. The experiment in a line: Phospho-ERK1/2 MSD Assay. It is filed as cell-based, human. Particulars: Homo sapiens, ASPC1, 2 h. Summed up: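 Read-out: MSD electrochemiluminescent detection of phosphorylated ERK1/2 in whole-cell lysates, fitted to a 4-parameter logistic curve for IC50. Prior to lysis, AsPC-1 cells (25,000 per well) received a 2 h compound dose-response at 37 °C.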

The subject of a further assay is AsPC-1 cells. Kind of assay: AsPC-1 CTG Assay (CellTiter-Glo cell viability). It counts as cell-based, human. The note with it: Homo sapiens, ASPC1, 72 h, first value of the cell, read-out: G12D/C/V Cell Proliferation CTG (72 h) AsPC-1. The gist of the method:
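IC50 values derive from 4-parameter logistic fits of CellTiter-Glo luminescence, expressed relative to DMSO. Compound dilution series were applied to overnight-seeded AsPC-1 or SW620 cells (RPMI 1640, 10% FBS) for 72 h at 37 °C, 5% CO2.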

Another assay relates to SW620 cells. Kind of assay: SW620 CTG Assay (CellTiter-Glo cell viability). Particulars: Homo sapiens, SW-620; SW620, 72 h; third value of the cell; read-out: G12D/C/V Cell Proliferation CTG (72 h) SW620. It counts as cell-based, human. On the procedure:
AsPC-1 and SW620 CTG Assay Protocols
AsPC-1 (human pancreatic adenocarcinoma; ATCC CRL-1682) or SW620 (human colon adenocarcinoma; ATCC CCL-227) cells were cultured in RPMI 1640 medium containing 10% fetal bovine serum and 1× penicillin/streptomycin/L-glutamine. Cells were seeded in 384-well plates at a density of 3.33E+04 cells/mL and incubated at 37° C., 5% CO2, overnight. Serially-diluted compound or DMSO was added to the cells, and plates were incubated at 37° C., 5% CO2 for 72 h. Cell viability was measured using a CellTiter-Glo® Luminescent Cell Viability Assay kit (Promega) according to the manufacturer's protocol. The luminescence signal of treated samples was normalized to DMSO control, and data were analyzed using a 4-parameter logistic model to calculate IC50 values.
In general terms: Cellular ATP, detected with luciferase, serves as a proxy for viable cell number.

A further assay has as its system MIA PaCa-2 cells. Kind of assay: MIA PaCa-2 CTG Assay (CellTiter-Glo cell viability). It counts as cell-based, human. The note with it: Homo sapiens; MIA PaCa-2 cells (G12C), 72 h; second value of the cell; read-out: G12D/C/V Cell Proliferation CTG (72 h) MIA PaCa-2. Summed up:
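IC50 values come from a 4-parameter logistic fit of CellTiter-Glo luminescence, normalized to DMSO control, after 72 h compound exposure at 37° C, 5% CO2. Cells grew in RPMI 1640 plus 10% FBS and were seeded at 1.67E+04 cells/mL one night before dosing.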

Where [4] appears, read: read-out: KRAS G12D Binding IC50.
[5] abbreviates: read-out: KRAS G12D Coupled Exchange IC50.
[6] abbreviates: read-out: 2 h p-ERK (AsPC-1 cells), IC50.
Setting [7] is: TR-FRET, read-out: KRAS G12D Binding.
Where [8] appears, read: 2 hours compound pre-incubation, read-out: KRAS G12D Coupled Exchange.
[9] abbreviates: read-out: 2 h p-ERK (AsPC-1 cells).

Structures can show the parent of a compound that is named as a salt. Where two headings read alike, the source gives them in different places.

`Fc1c2ncc3c(nc(OC[C@@]45CCCN4C[C@H](F)C5)nc13)N1CCOC[C@@H](COCCCCc3c(Cl)cc4[nH]ncc4c3-2)C1` (single isomer, unassigned) [Example 137]: the IC50 worked out at 4 nM in assay [1] (setting [4]); 2 nM in assay [2] (setting [5]); 47 nM in assay [3] (setting [6]); 420 nM in the assay on AsPC-1 cells (AsPC-1, 72 h); 96.7 nM in the assay with SW620 cells.

With `Cc1cc2[nH]ncc2c2c1CCOC(=O)O[C@H]1C[C@]3(CCCN(C3)c3nc(OC[C@@H]4CCCN4C)nc4c(F)c-2ncc34)C1` (single isomer, unassigned) [Example 326], the IC50 in assay [1] (setting [4]) was 4 nM; in assay [2] (setting [5]), 2 nM; in assay [3] (setting [6]), 16.8 nM; in the assay on AsPC-1 cells (AsPC-1, 72 h), 114 nM; in the assay on SW620 cells it was 66 nM.

As to `C[C@@]12CCCN(C1)c1nc(OC[C@@]34CCCN3C[C@H](F)C4)nc3c(F)c(ncc13)-c1cc(O)cc3cccc(c13)CCCCC(=O)N2` [Example 8, (15R)-32-Fluoro-8-(((2R,7aS)-2-fluorotetrahydro-1H-pyrrolo[1,2-a]pyrrol-7a(5H)-yl)methoxy)-28-hydroxy-15-methyl-3,7,9,11,16-pentaazahexacyclo[20.7.1.1˜2,6˜.1˜11,15˜.0˜5,10˜.0˜26,30˜]dotriaconta-1(29),2(32),3,5,7,9,22,24,26(30),27-decaen-17-one (2,2,2-trifluoroacetate) salt], the IC50 in assay [1] (setting [4]) came out at 8 nM; in assay [2] (setting [5]) it was 6 nM; in assay [3] (setting [6]), 60 nM; in the assay on SW620 cells it was 579 nM.

For the compound `Cc1cc2[nH]ncc2c2c1CCCOC(=O)O[C@@H]1COCCN(C1)c1nc(OC[C@@]34CCCN3C[C@H](F)C4)nc3c(F)c-2c(F)cc13` [Example 102, (26S)-9,32-difluoro-4-(((2R,7aS)-2-fluorotetrahydro-1H-pyrrolo[1,2-a]pyrrol-7a(5H)-yl)methoxy)-18-methyl-23,25,28-trioxa-1,3,5,14,15-pentaazahexacyclo[24.4.1.1~6,10~.0~2,7~.0~11,19~.0~12,16~]dotriaconta-2,4,6,8,10(32),11,13,16,18-nonaen-24-one], the IC50 was 10 nM in assay [3] (setting [6]); 90 nM with AsPC-1 cells (AsPC-1, 72 h); 22.6 nM in the assay with SW620 cells.

Turning to `CN(C)CC1(COc2nc3c4cnc(c(F)c4n2)-c2c(c(Cl)cc4[nH]ncc24)CCOC(=O)O[C@H]2C[C@]4(CCCN3C4)C2)CC1` [Example 334, (1S,3R)-10-chloro-24-((1-((dimethylamino)methyl)cyclopropyl)methoxy)-32-fluoro-4,6-dioxa-13,14,19,23,25,27-hexaazaheptacyclo[25.3.1.1~1,3~.1~18,22~.0~9,17~.0~12,16~.0~21,26~]tritriaconta-9,11,14,16,18(32),19,21,23,25-nonaen-5-one], the IC50 in assay [2] (setting [5]) was 1 nM; in assay [3] (setting [6]), 8 nM; in the assay with AsPC-1 cells (AsPC-1, 72 h) it was 117 nM; in the assay on SW620 cells it was 31 nM.

For `O=C1CCCCc2c(Cl)cc3[nH]ncc3c2-c2ncc3c(nc(OC[C@@]45CCCN4C[C@H](F)C5)nc3c2F)N2CCC[C@@H](C1)C2` [Example 372], the IC50 came out at 3 nM in assay [1] (setting [7]); 2 nM in assay [2] (setting [8]); 4.4 nM in assay [3] (setting [9]); 17 nM with AsPC-1 cells (AsPC-1 cells (G12D), 72 h); 20 nM in the assay on MIA PaCa-2 cells.

For the compound `Cc1cc2[nH]ncc2c2c1CCc1cnc(o1)[C@@H](O)[C@@H]1CCCN(C1)c1nc(OC[C@@]34CCCN3C[C@H](F)C4)nc3c(F)c-2ncc13` [Example 373], the IC50 in assay [1] (setting [7]) came to 7 nM; in assay [2] (setting [8]), 3 nM; in assay [3] (setting [9]), 7 nM; in the assay on AsPC-1 cells (AsPC-1 cells (G12D), 72 h), 21 nM; with MIA PaCa-2 cells it was 5 nM.

Consider `Fc1c2ncc3c(nc(OC[C@@]45CCCN4C[C@H](F)C5)nc13)N1CCC[C@@H](Cc3nnc(o3)CCc3c(Cl)cc4[nH]ncc4c3-2)C1` [Example 391, (18S)-9-chloro-31-fluoro-25-(((2R,7aS)-2-fluorotetrahydro-1H-pyrrolo[1,2-a]pyrrol-7a(5H)-yl)methoxy)-33-oxa-5,6,14,15,22,24,26,30-octaazaheptacyclo[25.3.1.1~13,16~.1~18,22~.0~2,10~.0~3,7~.0~23,28~]tritriaconta-1(31),2,4,7,9,13,15,23,25,27,29-undecaene], for which the IC50 in assay [1] (setting [7]) was determined as 4 nM; in assay [2] (setting [8]), 2 nM; in assay [3] (setting [9]) it was 36.3 nM; with AsPC-1 cells (AsPC-1 cells (G12D), 72 h), 265 nM; in the assay on MIA PaCa-2 cells it was 183 nM.

As to `CN1CCC[C@H]1COc1nc2c3cnc(c(F)c3n1)-c1c(c(Cl)cc3[nH]ncc13)CCc1cnc(o1)[C@@H](O)[C@@H]1CCCN2C1` [Example 394, (17S,18R)-9-chloro-31-fluoro-25-(((2S)-1-methylpyrrolidin-2-yl)methoxy)-33-oxa-5,6,15,22,24,26,30-heptaazaheptacyclo[25.3.1.1~13,16~.1~18,22~.0~2,10~.0~3,7~.0~23,28~]tritriaconta-1(31),2,4,7,9,13,15,23,25,27,29-undecaen-17-ol], the IC50 is 5 nM in assay [1] (setting [7]); 2 nM in assay [2] (setting [8]); 3 nM in assay [3] (setting [9]); 58 nM with AsPC-1 cells (AsPC-1 cells (G12D), 72 h); 10 nM in the assay on MIA PaCa-2 cells.

Take `O[C@]12CCOCCc3c(Cl)cc4[nH]ncc4c3-c3ncc4c(nc(OC[C@@]56CCCN5C[C@H](F)C6)nc4c3F)N3CCC[C@@](C3)(C1)C2` [Example 397, (1S,3R)-10-chloro-32-fluoro-24-(((2R,7aS)-2-fluorotetrahydro-1H-pyrrolo[1,2-a]pyrrol-7a(5H)-yl)methoxy)-6-oxa-13,14,19,23,25,27-hexaazaheptacyclo[25.3.1.1~1,3~.1~18,22~.0~9,17~.0~12,16~.0~21,26~]tritriaconta-9,11,14,16,18(32),19,21,23,25-nonaen-3-ol]: the IC50 in assay [1] (setting [7]) was 4 nM; in assay [2] (setting [8]) it was 2 nM; in assay [3] (setting [9]), 1.4 nM; in the assay on AsPC-1 cells (AsPC-1 cells (G12D), 72 h), 12 nM; in the assay on MIA PaCa-2 cells, 3 nM.

With `Fc1c2ncc3c(nc(OC[C@@]45CCCN4C[C@H](F)C5)nc13)N1CCCC[C@](F)(COCCCCc3c(Cl)cc4[nH]ncc4c3-2)C1` [Example 398, (26R)-18-chloro-26,32-difluoro-4-(((2R,7aS)-2-fluorotetrahydro-1H-pyrrolo[1,2-a]pyrrol-7a(5H)-yl)methoxy)-24-oxa-1,3,5,9,14,15-hexaazahexacyclo[24.4.1.1~6,10~.0~2,7~.0~11,19~.0~12,16~]dotriaconta-2,4,6,8,10(32),11,13,16,18-nonaene], the IC50 in assay [1] (setting [7]) worked out at 4 nM; in assay [2] (setting [8]), 2 nM; in assay [3] (setting [9]) it was 26.8 nM; in the assay with AsPC-1 cells (AsPC-1 cells (G12D), 72 h), 35 nM; in the assay with MIA PaCa-2 cells, 170 nM.

Consider `Fc1c2ncc3c(nc(OC[C@@]45CCCN4C[C@H](F)C5)nc13)N1CCCC[C@@](F)(COCCCCc3c(Cl)cc4[nH]ncc4c3-2)C1` [Example 399, (26S)-18-chloro-26,32-difluoro-4-(((2R,7aS)-2-fluorotetrahydro-1H-pyrrolo[1,2-a]pyrrol-7a(5H)-yl)methoxy)-24-oxa-1,3,5,9,14,15-hexaazahexacyclo[24.4.1.1~6,10~.0~2,7~.0~11,19~.0~12,16~]dotriaconta-2,4,6,8,10(32),11,13,16,18-nonaene], for which the IC50 stood at 4 nM in assay [1] (setting [7]); 2 nM in assay [2] (setting [8]); 25.9 nM in assay [3] (setting [9]); 44 nM in the assay on AsPC-1 cells (AsPC-1 cells (G12D), 72 h); 105 nM in the assay with MIA PaCa-2 cells.
